Laboratory results: patent US7255984B2, “Combination therapy for osteoporosis” (Pfizer Inc., priority 1996, dated 2007)

Key:
[1] = test system: ovariectomized (OVX) rats, lumbar spine; test: Lumbar vertebral bone mineral measurements (DXA) in OVX rats, combination and sequential treatment; type: in vivo, female Sprague-Dawley rats
Procedure: One hundred and four female Sprague-Dawley rats (Charles River, Wilmington, Mass.) at 12 months of age were sham-operated or ovariectomized (OVX) at month 0. Three months post-surgery, OVX rats were treated with either Prostaglandin E2 (PGE2), a known anabolic bone agent, at 3 mg/kg/day (subcutaneously injection), or PGE2 at 3 mg/kg/day (subcutaneously injection) combined with droloxifene (DRO) at 10 mg/kg/day (orally) for 2 months. Thereafter, the PGE2 treatment was withdrawn and the rats were then treated with either vehicle (10% alcohol in saline) or DRO (10 mg/kg/day, orally) for another one and a half months as described in the following.
Group VIII: Eight OVX rats were subcutaneously injected with 3 mg/kg/day of PGE2 from months 3 to 5, and autopsied at month 5.
Group IX: Eight OVX rats were subcutaneously injected with 3 mg/kg/day of PGE2 from months 3 to 5, and vehicle from 5 to 6.5 months, and then autopsied at month 6.5.
Group X: Eight OVX rats were subcutaneously injected with 3 mg/kg/day of PGE2 from months 3 to 5, and 10 mg/kg/day of DRO orally from 5 to 6.5 months, and then autopsied at month 6.5.
Group XI: Eight OVX rats were subcutaneously injected with 3 mg/kg/day of PGE2 and 10 mg/kg/day of DRO orally from months 3 to 5, and then autopsied at month 5.
Group XII: Eight OVX rats were subcutaneously injected with 3 mg/kg/day of PGE2 and 10 mg/kg/day of DRO orally from months 3 to 5, and vehicle from months 5 to 6.5, then autopsied at month 6.5.
Group XIII: Eight OVX rats were subcutaneously injected with 3 mg/kg/day of PGE2 and 10 mg/kg/day of DRO orally from months 3 to 5, and DRO alone from months 5 to 6.5, then autopsied at month 6.5.
Both PGE2 (Cayman Chemical Co., Ann Arbor, Mich.) or droloxifene (Pfizer Inc. Groton, Conn.) powder was first dissolved in 100% ethanol and further diluted with saline into desired concentrations (final ethanol concentration was 10%). A PGE2 solution was daily injected subcutaneously on the back at 1 ml/kg. A droloxifene solution was given daily p.o. at 1 ml/rat.
Dual energy x-ray absorptiometry (QDR 1000/W, Hologic, Inc., Waltham, Mass.) equipped with a “Regional High Resolution Scan” software (Hologic, Inc., Waltham, Mass.) was used to determined the bone area, bone mineral content (BMC), and bone mineral density (BMD) of whole lumbar spine and each of the six lumbar vertebrae (LV1-6) in the anesthetized rats. The rats were anesthetized by injection (i.p.) of 1 ml/kg of a mixture of ketamine/rompun (ratio of 4 to 3), and then placed on the rat platform. The scan field sized was 6×1.9 cm, resolution was 0.0254×0.0127 cm, and scan speed was 7.25 mm/sec. The whole lumbar spine scan image was obtained and analyzed. Bone area (BA), and bone mineral content (BMC) were determined, and bone mineral density was calculated (MBC divided by BA) for the whole lumbar spine and each of the six lumbar vertebrae (LV1-6).

Ovariectomized Rats = conditions: cited from earlier work
[2] = test system: Osteogenic Female Rat Skeleton; conditions: risedronate administered after discontinuing PGE2; cited from earlier work
[3] = OVX rats, PGE2 3 mg/kg/day months 3 to 5, then vehicle months 5 to 6.5

For CC/C(=C(/c1ccc(OCCN(C)C)cc1)c1cccc(O)c1)c1ccccc1 [DRO, phenol, 3-[1-[4[2-(dimethylamino)ethoxy]phenyl]-2-phenyl-1-butenyl]-, (E)-], the “Effect of DRO on the anabolic effects of PGE2” value ([1]; OVX rats, DRO 10 mg/kg/day orally combined with PGE2 3 mg/kg/day s.c. for 2 months) was “did not blunt”, the “Maintenance of PGE2-restored bone after discontinuation of PGE2” value ([1]; OVX rats, PGE2 months 3 to 5, then DRO 10 mg/kg/day orally months 5 to 6.5) was “completely maintained” and the “Bone loss in the lumbar spine when PGE2 was withdrawn and DRO continued for another 1.5 months” value ([1]; OVX rats, PGE2 plus DRO months 3 to 5, then DRO alone 10 mg/kg/day months 5 to 6.5) was “no bone loss”.

In the case of CCCCC[C@H](O)/C=C/[C@H]1[C@H](O)CC(=O)[C@@H]1C/C=C\CCCC(=O)O [PGE2, Prostaglandin E2], the “BMC of LV2 upon PGE2 cessation of treatment” value [1, 3] is reported as “significant decrease”, the “BMD of LV1, LV2, and LV3 upon PGE2 cessation of treatment” value [1, 3] is reported as “significant decrease” and the “BMC and BMD of whole lumbar spine and lumbar vertebrae versus sham control levels” value ([1]; rats 3 months post-OVX, treated for 2 months (months 3 to 5), PGE2 3 mg/kg/day s.c., DRO 10 mg/kg/day orally) is reported as “completely restored”.

For O=C(c1ccc(OCCN2CCCCC2)cc1)c1c(-c2ccc(O)cc2)sc2cc(O)ccc12 [raloxifene, 6hydroxy-2-(4-hydroxyphenyl)-3-[4-(2-piperidinoethoxy)benzoyl]benzo[b]thiophene], the “Action on bone and lipids” value (Ovariectomized Rats; compared with estrogen) is given as “mimics the favorable action of estrogen” and the Uterine stimulatory effect (Ovariectomized Rats; unlike estrogen) is given as “minimal”.

For O=P(O)(O)C(O)(Cc1cccnc1)P(=O)(O)O [risedronate], the “Time for which most of the new cancellous and cortical bone induced by PGE2 is maintained after discontinuing PGE2” value [2] is listed as “at least 60 days”.
